The text below walks through data of ChEMBL document CHEMBL1135111, “Antifungal sordarins. part 3: synthesis and structure-activity relationships of 2',3'-fused oxirane derivatives” (Bioorg Med Chem Lett, 2002).

For assay [1], the system named is Candida albicans. Nature of the assay: Compound was evaluated for antifungal activity as minimum cell growth inhibition against Candida albicans - 4711E. The assay is classed as functional.
In the next assay the test system is Candida tropicalis. Nature of the assay: Compound was evaluated for antifungal activity as minimum cell growth inhibition against Candida tropicalis - 2808. The assay is classed as functional.
For another assay, the system named is Nakaseomyces glabratus. In words: Compound was evaluated for antifungal activity as minimum cell growth inhibition against Candida glabrata - 2375E. The assay is classed as functional.
In assay [2] the test system is Candida albicans. In words: Compound was evaluated for antifungal activity as minimum cell growth inhibition against Candida albicans - 2005. The assay is classed as functional.
A further assay relates to Cryptococcus neoformans. In words: Compound was evaluated for antifungal activity as minimum cell growth inhibition against Cryptococcus neoformans - 2867. The assay is classed as functional.
The subject of the next assay is Kluyveromyces marxianus. In words: Compound was evaluated for antifungal activity as minimum cell growth inhibition against Candida pseudotropicalis -2371. It is filed as functional, candida pseudotrop.

In brackets after ≈: the same amount, converted by molar mass.

With `CO[C@H]1[C@@H]2O[C@@H]2[C@H](OCC23C[C@@H]4[C@H](C)CC[C@H]4C4(C=O)CC2C=C(C(C)C)C34C(=O)O)O[C@@H]1C` (some centres not stated), the MIC (commonly the smallest concentration in the dilution series that meets the test's criterion for growth inhibition) came to 0.25 µg/mL (≈ 0.527 µM) with Candida albicans [1]; 0.25 µg/mL (≈ 0.527 µM) in the assay with Candida tropicalis; 16 µg/mL (≈ 33.7 µM) with Nakaseomyces glabratus; 0.06 µg/mL (≈ 0.126 µM) in the assay on Candida albicans [2]; 8 µg/mL (≈ 16.9 µM) in the assay with Cryptococcus neoformans; 0.03 µg/mL (≈ 0.0632 µM) with Kluyveromyces marxianus.
On to `C/C=C/C=C(/O[C@H]1[C@H](O)[C@H](OCC23C[C@@H]4[C@H](C)CC[C@H]4C4(C=O)CC2C=C(C(C)C)C34C(=O)O)O[C@H](C)[C@H]1O)C(=O)C(CC)CC` (some centres not stated), for which the MIC is 0.25 µg/mL (≈ 0.389 µM) with Candida albicans [1]; 0.06 µg/mL (≈ 0.0933 µM) in the assay with Candida tropicalis; above 125 µg/mL with Nakaseomyces glabratus; 0.015 µg/mL (≈ 0.0233 µM) with Candida albicans [2]; 0.25 µg/mL (≈ 0.389 µM) against Cryptococcus neoformans; 0.03 µg/mL (≈ 0.0467 µM) in the assay on Kluyveromyces marxianus.
With `CO[C@H]1[C@@H]2O[C@@H]2[C@H](OCC23C[C@@H]4[C@H](C)CC[C@H]4C4(C=O)CC2C=C(C(C)C)C34C(=O)O)O[C@@H]1CO` (some centres not stated), the MIC is 16 µg/mL (≈ 32.6 µM) in the assay with Candida albicans [1]; 31 µg/mL (≈ 63.2 µM) in the assay on Candida tropicalis; above 125 µg/mL in the assay on Nakaseomyces glabratus; 4 µg/mL (≈ 8.15 µM) in the assay with Candida albicans [2]; above 125 µg/mL against Cryptococcus neoformans; 16 µg/mL (≈ 32.6 µM) against Kluyveromyces marxianus.
On to `COC[C@H]1O[C@@H](OCC23C[C@@H]4[C@H](C)CC[C@H]4C4(C=O)CC2C=C(C(C)C)C34C(=O)O)[C@H]2O[C@H]2[C@@H]1OC` (some centres not stated), for which the MIC in the assay on Candida albicans [1] was found to be 0.5 µg/mL (≈ 0.991 µM); with Candida tropicalis it was 4 µg/mL (≈ 7.93 µM); against Nakaseomyces glabratus, 62 µg/mL (≈ 123 µM); against Candida albicans [2], 0.06 µg/mL (≈ 0.119 µM); in the assay on Cryptococcus neoformans it was 16 µg/mL (≈ 31.7 µM); in the assay on Kluyveromyces marxianus it was 0.25 µg/mL (≈ 0.495 µM).
Regarding `CO[C@H]1[C@H]2O[C@H]2[C@H](OCC23C[C@@H]4[C@H](C)CC[C@H]4C4(C=O)CC2C=C(C(C)C)C34C(=O)O)O[C@@H]1C` (some centres not stated), the MIC with Candida tropicalis was 4 µg/mL (≈ 8.43 µM); in the assay on Nakaseomyces glabratus, 125 µg/mL (≈ 263 µM); in the assay on Candida albicans [2] it was 0.25 µg/mL (≈ 0.527 µM); with Cryptococcus neoformans, above 125 µg/mL; in the assay on Kluyveromyces marxianus, 0.12 µg/mL (≈ 0.253 µM).
Consider `CO[C@H]1[C@H]2O[C@H]2[C@@H](OCC23C[C@@H]4[C@H](C)CC[C@H]4C4(C=O)CC2C=C(C(C)C)C34C(=O)O)O[C@@H]1C` (some centres not stated), for which the MIC was 16 µg/mL (≈ 33.7 µM) in the assay with Candida albicans [1]; above 125 µg/mL against Candida tropicalis; 31 µg/mL (≈ 65.3 µM) in the assay with Nakaseomyces glabratus; 4 µg/mL (≈ 8.43 µM) against Candida albicans [2]; 125 µg/mL (≈ 263 µM) in the assay with Cryptococcus neoformans; 2 µg/mL (≈ 4.21 µM) with Kluyveromyces marxianus.
On to `CO[C@H]1[C@@H]2O[C@@H]2[C@@H](OCC23C[C@@H]4[C@H](C)CC[C@H]4C4(C=O)CC2C=C(C(C)C)C34C(=O)O)O[C@@H]1C` (some centres not stated), for which the MIC in the assay with Candida albicans [1] is 8 µg/mL (≈ 16.9 µM); against Candida tropicalis, 31 µg/mL (≈ 65.3 µM); against Nakaseomyces glabratus, 31 µg/mL (≈ 65.3 µM); with Candida albicans [2] it was 4 µg/mL (≈ 8.43 µM); with Cryptococcus neoformans, above 125 µg/mL; in the assay on Kluyveromyces marxianus it was 1 µg/mL (≈ 2.11 µM).
Consider `CO[C@H]1[C@@H]2S[C@@H]2[C@H](OCC23C[C@@H]4[C@H](C)CC[C@H]4C4(C=O)CC2C=C(C(C)C)C34C(=O)O)O[C@@H]1C` (some centres not stated), for which the MIC is 0.12 µg/mL (≈ 0.245 µM) with Candida albicans [1]; 0.5 µg/mL (≈ 1.02 µM) in the assay on Candida tropicalis; 16 µg/mL (≈ 32.6 µM) against Nakaseomyces glabratus; 0.03 µg/mL (≈ 0.0611 µM) against Candida albicans [2]; above 125 µg/mL against Cryptococcus neoformans; 0.008 µg/mL (≈ 0.0163 µM) in the assay on Kluyveromyces marxianus.
